Test results published in patent US6355799B1, “Substituted benzene compounds, process for their preparation, and herbicidal and defoliant compositions containing them” (ISK Americas Incorporated, priority 1997, dated 2002).

Assays:
Type in all cases: in vivo
[1] = system: ivyleaf morningglory (Ipomoea hederacea, IPOHE); assay: Pre-emerge test, greenhouse herbicide activity screening; settings: pre-emerge, 14 days after application, rating scale 0-100
Method in brief: (§1)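 Herbicidal damage is scored 0 (none) to 100 (complete plant death) two weeks after a simulated field spray. Rates span 15–1000 g ai/ha, delivered in acetone at 187 l/ha. For post-emergence treatments, plants have 2–3 leaves and the spray carries 0.25% v/v non-ionic surfactant.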

[2] = system: green foxtail (Setaria viridis, SETVI); assay: as above; settings: pre-emerge, 14 days after application, rating scale 0-100
Method in brief: as §1

[3] = system: common ragweed (Ambrosia artemisizfolia L., AMBEL); assay: as above; settings: pre-emerge, 14 days after application, rating scale 0-100
Method in brief: as §1

[4] = system: barnyardgrass (Echinochloa crus-galli, ECHCG); assay: as above; settings: pre-emerge, 14 days after application, rating scale 0-100
Method in brief: as §1

[5] = system: velvetleaf (Abutilon theophrasti, ABUTH); assay: as above; settings: pre-emerge, 14 days after application, rating scale 0-100
Method in brief: as §1

[6] = system: lambsquarters (Chenopodium album, CHEAL); assay: as above; settings: pre-emerge, 14 days after application, rating scale 0-100
Method in brief: as §1

[7] = system: large crabgrass (Digitaria sanguinalis, DIGSA); assay: as above; settings: pre-emerge, 14 days after application, rating scale 0-100
Method in brief: as §1

[8] = system: johnsongrass (Sorghum halepense, SORHA); assay: as above; settings: pre-emerge, 14 days after application, rating scale 0-100
Method in brief: as §1

[9] = system: sicklepod (Cassia obtusifolia, CASOB); assay: as above; settings: pre-emerge, 14 days after application, rating scale 0-100
Method in brief: as §1

[10] = system: ivyleaf morningglory (Ipomoea hederacea, IPOHE); assay: Post-emerge test, greenhouse herbicide activity screening; settings: post-emerge, 14 days after application, rating scale 0-100
Method in brief: (§2)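 Compounds in acetone were track-sprayed at 15-1000 g ai/ha (187 l/ha) on sandy loam pots: pre-emerge one day after seeding, post-emerge at 2-3 leaf stage with 0.25% v/v non-ionic surfactant. Phytotoxicity was rated 14 days later on a 0 (no damage) to 100 (complete death) scale.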

[11] = system: green foxtail (Setaria viridis, SETVI); assay: as above; settings: post-emerge, 14 days after application, rating scale 0-100
Method in brief: as §2

[12] = system: barnyardgrass (Echinochloa crus-galli, ECHCG); assay: as above; settings: post-emerge, 14 days after application, rating scale 0-100
Method in brief: as §2

[13] = system: velvetleaf (Abutilon theophrasti, ABUTH); assay: as above; settings: post-emerge, 14 days after application, rating scale 0-100
Method in brief: as §2

[14] = system: redroot pigweed (Amaranthus retroflexus, AMARE); assay: as above; settings: post-emerge, 14 days after application
Method in brief: as §2

[15] = system: lambsquarters (Chenopodium album, CHEAL); assay: as above; settings: post-emerge, 14 days after application, rating scale 0-100
Method in brief: as §2

[16] = system: large crabgrass (Digitaria sanguinalis, DIGSA); assay: as above; settings: post-emerge, 14 days after application, rating scale 0-100
Method in brief: as §2

[17] = system: johnsongrass (Sorghum halepense, SORHA); assay: as above; settings: post-emerge, 14 days after application, rating scale 0-100
Method in brief: as §2

[18] = system: sicklepod (Cassia obtusifolia, CASOB); assay: as above; settings: post-emerge, 14 days after application, rating scale 0-100
Method in brief: as §2

[19] = system: field corn (Zea mays L., var. Dekalb 535, CORN); assay: Pre-emerge test, crop safety; settings: pre-emerge, 14 days after application, rating scale 0-100
Method in brief: (§3)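 Sandy loam pots; pre-emerge: sown 1 d pre-spray, surface-watered after, then bottom-watered. Post-emerge: sown 8–21 d before, 2–3 leaf stage, + 0.25% v/v NIS, bottom-watered. Acetone, 187 l/ha track spray, 15–1000 g ai/ha. 0–100 injury score, day 14.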

[20] = system: upland rice (Oryza sp., var. Tebonnet, RICE); assay: Pre-emerge test, crop safety; settings: pre-emerge, 14 days after application, rating scale 0-100
Method in brief: as §3

[21] = system: redroot pigweed (Amaranthus retroflexus, AMARE); assay: Pre-emerge test, greenhouse herbicide activity screening; settings: pre-emerge, 14 days after application, rating scale 0-100
Method in brief: as §3

[22] = system: field corn (Zea mays L., var. Dekalb 535, CORN); assay: Post-emerge test, crop safety; settings: post-emerge, 14 days after application, rating scale 0-100
Method in brief: as §1

[23] = system: upland rice (Oryza sp., var. Tebonnet, RICE); assay: Post-emerge test, crop safety; settings: post-emerge, 14 days after application, rating scale 0-100
Method in brief: as §1

[24] = 63 g ai/ha, rating scale 0-100 (0 no damage, 100 complete death)
[25] = 250 g ai/ha, rating scale 0-100

COc1c(Cl)cc(F)c(-n2c(=O)cc(C(F)(F)F)n(C)c2=O)c1NNC(=O)c1ccccc1 [15-3]
phytotoxicity rating IPOHE ([1]; 63 g ai/ha): 100
phytotoxicity rating IPOHE ([1]; 250 g ai/ha): 100
phytotoxicity rating SETVI ([2]; 63 g ai/ha): 100
phytotoxicity rating SETVI ([2]; 250 g ai/ha): 100
phytotoxicity rating AMBEL ([3]; 63 g ai/ha): 100
phytotoxicity rating AMBEL ([3]; 250 g ai/ha): 100
phytotoxicity rating ECHCG ([4]; 63 g ai/ha): 100
phytotoxicity rating ECHCG ([4]; 250 g ai/ha): 100
phytotoxicity rating ABUTH ([5]; 63 g ai/ha): 100
phytotoxicity rating ABUTH ([5]; 250 g ai/ha): 100
phytotoxicity rating CHEAL ([6]; 63 g ai/ha): 100
phytotoxicity rating CHEAL ([6]; 250 g ai/ha): 100
phytotoxicity rating DIGSA ([7]; 63 g ai/ha): 100
phytotoxicity rating DIGSA ([7]; 250 g ai/ha): 100
phytotoxicity rating SORHA ([8]; 63 g ai/ha): 100
phytotoxicity rating SORHA ([8]; 250 g ai/ha): 100
phytotoxicity rating CASOB ([9]; 63 g ai/ha): 100
phytotoxicity rating CASOB ([9]; 250 g ai/ha): 100
Post-emerge Herbicidal Activity IPOHE (phytotoxicity rating) ([10]; 63 g ai/ha): 95
Post-emerge Herbicidal Activity IPOHE (phytotoxicity rating) ([10]; 250 g ai/ha): 100
Post-emerge Herbicidal Activity SETVI (phytotoxicity rating) ([11]; 63 g ai/ha): 30
Post-emerge Herbicidal Activity SETVI (phytotoxicity rating) ([11]; 250 g ai/ha): 80
Post-emerge Herbicidal Activity ECHCG (phytotoxicity rating) ([12]; 63 g ai/ha): 10
Post-emerge Herbicidal Activity ECHCG (phytotoxicity rating) ([12]; 250 g ai/ha): 90
Post-emerge Herbicidal Activity ABUTH (phytotoxicity rating) ([13]; 63 g ai/ha): 100
Post-emerge Herbicidal Activity ABUTH (phytotoxicity rating) ([13]; 250 g ai/ha): 100
Post-emerge Herbicidal Activity AMARE (phytotoxicity rating) [14, 24]: 95
Post-emerge Herbicidal Activity AMARE (phytotoxicity rating) [14, 25]: 100
Post-emerge Herbicidal Activity CHEAL (phytotoxicity rating) ([15]; 63 g ai/ha): 95
Post-emerge Herbicidal Activity CHEAL (phytotoxicity rating) ([15]; 250 g ai/ha): 100
Post-emerge Herbicidal Activity DIGSA (phytotoxicity rating) ([16]; 63 g ai/ha): 20
Post-emerge Herbicidal Activity DIGSA (phytotoxicity rating) ([16]; 250 g ai/ha): 80
Post-emerge Herbicidal Activity SORHA (phytotoxicity rating) ([17]; 63 g ai/ha): 0
Post-emerge Herbicidal Activity SORHA (phytotoxicity rating) ([17]; 250 g ai/ha): 90
Post-emerge Herbicidal Activity CASOB (phytotoxicity rating) ([18]; 63 g ai/ha): 70
Post-emerge Herbicidal Activity CASOB (phytotoxicity rating) ([18]; 250 g ai/ha): 100
phytotoxicity rating CORN ([19]; 63 g ai/ha): 90
phytotoxicity rating CORN ([19]; 250 g ai/ha): 100
phytotoxicity rating RICE ([20]; 63 g ai/ha): 95
phytotoxicity rating RICE ([20]; 250 g ai/ha): 100
phytotoxicity rating AMARE ([21]; 63 g ai/ha): 100
phytotoxicity rating AMARE ([21]; 250 g ai/ha): 100
Post-emerge Herbicidal Activity CORN (crop damage rating) ([22]; 63 g ai/ha): 25
Post-emerge Herbicidal Activity CORN (crop damage rating) ([22]; 250 g ai/ha): 80
Post-emerge Herbicidal Activity RICE (crop damage rating) ([23]; 63 g ai/ha): 50
Post-emerge Herbicidal Activity RICE (crop damage rating) ([23]; 250 g ai/ha): 90

C=CC=NNc1c(OC)c(Cl)cc(F)c1-n1c(=O)cc(C(F)(F)F)n(C)c1=O [15-10]
phytotoxicity rating IPOHE ([1]; 63 g ai/ha): 100
phytotoxicity rating IPOHE ([1]; 250 g ai/ha): 100
phytotoxicity rating SETVI ([2]; 63 g ai/ha): 100
phytotoxicity rating SETVI ([2]; 250 g ai/ha): 100
phytotoxicity rating AMBEL ([3]; 63 g ai/ha): 100
phytotoxicity rating AMBEL ([3]; 250 g ai/ha): 100
phytotoxicity rating ECHCG ([4]; 63 g ai/ha): 99
phytotoxicity rating ECHCG ([4]; 250 g ai/ha): 100
phytotoxicity rating ABUTH ([5]; 63 g ai/ha): 100
phytotoxicity rating ABUTH ([5]; 250 g ai/ha): 100
phytotoxicity rating CHEAL ([6]; 63 g ai/ha): 100
phytotoxicity rating CHEAL ([6]; 250 g ai/ha): 100
phytotoxicity rating DIGSA ([7]; 63 g ai/ha): 100
phytotoxicity rating DIGSA ([7]; 250 g ai/ha): 100
phytotoxicity rating SORHA ([8]; 63 g ai/ha): 100
phytotoxicity rating SORHA ([8]; 250 g ai/ha): 100
phytotoxicity rating CASOB ([9]; 63 g ai/ha): 80
phytotoxicity rating CASOB ([9]; 250 g ai/ha): 100
Post-emerge Herbicidal Activity IPOHE (phytotoxicity rating) ([10]; 63 g ai/ha): 100
Post-emerge Herbicidal Activity IPOHE (phytotoxicity rating) ([10]; 250 g ai/ha): 100
Post-emerge Herbicidal Activity SETVI (phytotoxicity rating) ([11]; 63 g ai/ha): 30
Post-emerge Herbicidal Activity SETVI (phytotoxicity rating) ([11]; 250 g ai/ha): 75
Post-emerge Herbicidal Activity ECHCG (phytotoxicity rating) ([12]; 63 g ai/ha): 10
Post-emerge Herbicidal Activity ECHCG (phytotoxicity rating) ([12]; 250 g ai/ha): 80
Post-emerge Herbicidal Activity ABUTH (phytotoxicity rating) ([13]; 63 g ai/ha): 100
Post-emerge Herbicidal Activity ABUTH (phytotoxicity rating) ([13]; 250 g ai/ha): 100
Post-emerge Herbicidal Activity AMARE (phytotoxicity rating) [14, 24]: 100
Post-emerge Herbicidal Activity AMARE (phytotoxicity rating) [14, 25]: 100
Post-emerge Herbicidal Activity CHEAL (phytotoxicity rating) ([15]; 63 g ai/ha): 100
Post-emerge Herbicidal Activity CHEAL (phytotoxicity rating) ([15]; 250 g ai/ha): 100
Post-emerge Herbicidal Activity DIGSA (phytotoxicity rating) ([16]; 63 g ai/ha): 60
Post-emerge Herbicidal Activity DIGSA (phytotoxicity rating) ([16]; 250 g ai/ha): 90
Post-emerge Herbicidal Activity SORHA (phytotoxicity rating) ([17]; 63 g ai/ha): 30
Post-emerge Herbicidal Activity SORHA (phytotoxicity rating) ([17]; 250 g ai/ha): 70
Post-emerge Herbicidal Activity CASOB (phytotoxicity rating) ([18]; 63 g ai/ha): 100
Post-emerge Herbicidal Activity CASOB (phytotoxicity rating) ([18]; 250 g ai/ha): 100
phytotoxicity rating CORN ([19]; 63 g ai/ha): 75
phytotoxicity rating CORN ([19]; 250 g ai/ha): 100
phytotoxicity rating RICE ([20]; 63 g ai/ha): 80
phytotoxicity rating RICE ([20]; 250 g ai/ha): 100
phytotoxicity rating AMARE ([21]; 63 g ai/ha): 100
phytotoxicity rating AMARE ([21]; 250 g ai/ha): 100
Post-emerge Herbicidal Activity CORN (crop damage rating) ([22]; 63 g ai/ha): 45
Post-emerge Herbicidal Activity CORN (crop damage rating) ([22]; 250 g ai/ha): 65
Post-emerge Herbicidal Activity RICE (crop damage rating) ([23]; 63 g ai/ha): 50
Post-emerge Herbicidal Activity RICE (crop damage rating) ([23]; 250 g ai/ha): 80
